# Legend:
# Format in all cases: in vivo
# [1] = test system: barnyardgrass (Echinochloa crus-galli); test: Test A pre-/postemergence plant response
# In short: (§1)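 Greenhouse trial, ~10 days. Soil (loam/sand) sprayed preemergence after seeding; emerged plants (1–2 leaf, 2–10 cm) sprayed postemergence in parallel. Response = visual injury vs untreated control, 0–100.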
# [2] = test system: giant foxtail (Setaria faberii); test: Test A pre-/postemergence plant response
# In short: as §1
# [3] = test system: velvetleaf (Abutilon theophrasti); test: Test A pre-/postemergence plant response
# In short: as §1
# [4] = test system: wheat (Triticum aestivum); test: Test A pre-/postemergence plant response
# In short: as §1
# [5] = test system: corn (Zea mays); test: Test A pre-/postemergence plant response
# In short: as §1
# [6] = test system: large crabgrass (Digitaria sanguinalis); test: Test A pre-/postemergence plant response
# In short: as §1
# [7] = test system: pigweed (Amaranthus retroflexus); test: Test A pre-/postemergence plant response
# In short: as §1
# [8] = test system: morningglory (Ipomoea spp.); test: Test A pre-/postemergence plant response
# In short: as §1
# [9] = test system: winter barley (Hordeum vulgare); test: Test B postemergence plant response; conditions: Postemergence
# In short: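 Plants grown in peat/vermiculite medium were sprayed postemergence at 2–18 cm height (1- to 4-leaf stage). After 13–15 days in the greenhouse, response was rated visually against untreated controls on a 0–100 scale (0 no effect, 100 complete control).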
# [10] = test system: barnyardgrass (Echinochloa crus-galli); test: Test B flooded paddy test; conditions: for Plant response rating, Barnyardgrass: Flood (flooded paddy test), 13 to 15 days
# In short: (§2)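 Plants were grown to the 2-leaf stage, then pots were flooded to 3 cm above the soil and compounds were applied directly into the paddy water. That depth was held throughout. After 13 to 15 days in a greenhouse, injury was visually rated against controls on a 0–100 scale.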
# [11] = test system: ducksalad (Heteranthera limosa); test: Test B flooded paddy test; conditions: for Plant response rating, Ducksalad: Flood (flooded paddy test), 13 to 15 days
# In short: as §2
# [12] = test system: umbrella sedge (Cyperus difformis); test: Test B flooded paddy test; conditions: for Plant response rating, Sedge, Umbrella: Flood (flooded paddy test), 13 to 15 days
# In short: as §2
# [13] = test system: rice (Oryza sativa); test: Test B flooded paddy test; conditions: for Plant response rating, Rice: Flood (flooded paddy test), 13 to 15 days
# In short: as §2
# [14] = Postemergence, 125 g ai/ha, 0 to 100 scale where 0 is no effect and 100 is complete control
# [15] = Postemergence, 500 g ai/ha, visual injury, 0 to 100 scale (0 no effect, 100 complete control), approx. ten days
# [16] = Preemergence, 125 g ai/ha, 0 to 100 scale, 0 = no effect, 100 = complete control
# [17] = Preemergence, 500 g ai/ha, 0 to 100 scale, 0 = no effect, 100 = complete control
# [18] = 250 g ai/ha, flooded paddy test, visual rating on 0 to 100 scale (0 no effect, 100 complete control) after 13 to 15 days
# [19] = 62 g ai/ha, scale of 0 to 100 where 0 is no effect and 100 is complete control
# [20] = 125 g ai/ha, scale 0 to 100, 0 is no effect, 100 is complete control
# [21] = Flood, 31 g ai/ha, scale 0 to 100 (0 no effect, 100 complete control)
compound,measurement,setting,value
COc1ccc(-n2c(-c3ccccc3)ncc(C(=O)C3=C(O)CCCC3=O)c2=O)cc1OC [Compound 218],"Plant response rating, Barnyardgrass",[1]; [14],80
same,Barnyardgrass plant response rating,[1]; [15],90
same,"Plant response rating, Barnyardgrass",[1]; [16],20
same,"Plant response rating, Barnyardgrass",[1]; [17],100
same,"Plant response rating, Foxtail, Giant",[2]; [14],40
same,"Foxtail, Giant plant response rating",[2]; [15],70
same,"Plant response rating, Foxtail, Giant",[2]; [16],0
same,"Plant response rating, Foxtail, Giant",[2]; [17],50
same,"Plant response rating, Velvetleaf",[3]; [14],100
same,Velvetleaf plant response rating,[3]; [15],100
same,"Plant response rating, Velvetleaf",[3]; [16],50
same,"Plant response rating, Velvetleaf",[3]; [17],90
same,"Plant response rating, Wheat",[4]; [14],0
same,Wheat plant response rating,[4]; [15],0
same,"Plant response rating, Wheat",[4]; [16],0
same,"Plant response rating, Wheat",[4]; [17],0
same,"Plant response rating, Corn",[5]; [14],0
same,Corn plant response rating,[5]; [15],70
same,"Plant response rating, Corn",[5]; [16],0
same,"Plant response rating, Corn",[5]; [17],0
same,"Plant response rating, Crabgrass, Large",[6]; [14],20
same,"Crabgrass, Large plant response rating",[6]; [15],70
same,"Plant response rating, Crabgrass, Large",[6]; [16],10
same,"Plant response rating, Crabgrass, Large",[6]; [17],80
same,"Plant response rating, Pigweed",[7]; [14],100
same,Pigweed plant response rating,[7]; [15],100
same,"Plant response rating, Pigweed",[7]; [16],20
same,"Plant response rating, Pigweed",[7]; [17],90
same,"Plant response rating, Morningglory",[8]; [14],80
same,Morningglory plant response rating,[8]; [15],100
same,"Plant response rating, Morningglory",[8]; [16],0
same,"Plant response rating, Morningglory",[8]; [17],80
same,"Plant response rating, Barley","[9]; 31 g ai/ha, 0 to 100 scale (0 no effect, 100 complete control)",30
same,"Plant response rating, Barley","[9]; 62 g ai/ha, scale 0 to 100 (0 no effect, 100 complete control)",30
same,"Plant response rating, Barley","[9]; 125 g ai/ha, scale 0 to 100 (0 no effect, 100 complete control)",35
same,"Plant response rating, Barley","[9]; 250 g ai/ha, scale 0 to 100 (0 no effect, 100 complete control), 13 to 15 days",35
same,"Plant response rating, Flood, Barnyardgrass",[10]; [18],40
same,"Plant response rating, Barnyardgrass",[10]; [19],0
same,"Plant response rating, Barnyardgrass",[10]; [20],30
same,Barnyardgrass plant response rating,[10]; [21],0
same,"Plant response rating, Flood, Ducksalad",[11]; [18],95
same,"Plant response rating, Ducksalad",[11]; [19],80
same,"Plant response rating, Ducksalad",[11]; [20],85
same,Ducksalad plant response rating,[11]; [21],75
same,"Plant response rating, Flood, Sedge, Umbrella",[12]; [18],85
same,"Plant response rating, Sedge, Umbrella",[12]; [19],80
same,"Plant response rating, Sedge, Umbrella",[12]; [20],85
same,"Sedge, Umbrella plant response rating",[12]; [21],75
same,"Plant response rating, Flood, Rice",[13]; [18],15
same,"Plant response rating, Rice",[13]; [19],0
same,"Plant response rating, Rice",[13]; [20],10
same,Rice plant response rating,[13]; [21],0

# Reference: patent publication US8952024B2, “Herbicidal pyrimidone derivatives” (E I du Pont de Nemours and Company, priority 2009, dated 2015)
